Experiments:
left atrial muscle = experiment: Test Method 1: enhancement of contracting force of left atrial muscle extirpated from a guinea pig (electrically stimulated at 1 Hz); assay type: cell-based; settings: Cavia porcellus, Krebs-Henseleit solution 32° C.; for EC20: read-out: EC20 (molar concentration for enhancing the left atrial muscle contracting force to the level of 20%); for EC50: read-out: EC50 (molar concentration for enhancing the left atrial muscle contracting force to the level of 50%); for EC100: read-out: EC100 (molar concentration for enhancing the left atrial muscle contracting force to the level of 100%)
heart muscle = experiment: Test Method 2: effect on heart muscle contracting force in an anesthetized dog (LV-dP/dtmax); assay type: in vivo; settings: anesthetized Beagle dogs, 1 mg/kg through a cannula inserted into vein; increasing rate, value at initiation set as 100%
Experimental: The compounds according to the present invention was evaluated with reference to the effect on heart muscle contracting force by means of a method using an anesthetized dog.
Beagle dogs having a body weight of 8-11 kg were used for the experiment. They were anesthetized by intraperitoneal administration of a sodium salt of pentobarbital (35 mg/kg) and, if necessary, of additional small amount of the sodium salt of pentobarbital. Anesthesia was maintained by administering the sodium salt of pentobarbital in a dose of 5 mg/kg/hour through a cannula inserted within a vein. Breathing was performed through a cannula inserted within a trachea with a respirator. The maximum accelerations of contracting the […] (LV-dp/dtmax) were measured with a pressure transducer inserted into the left ventricle. Compounds tested was administered in a dose of 1 mg/kg through a cannula inserted into the other vein. The parameters were expressed as the increasing rate (Δ%) after dosing of the drug with the value at the initiation when the drug was administered being set as 100%.

right atrial muscle = experiment: Test Method 1: enhancing rate of the pulsation of the right atrial muscle extirpated from a guinea pig; assay type: cell-based; settings: for enhancing rate of the pulsation of the right atrial muscle (in parentheses under EC20) / enhancing rate of the pulsation of the right atrial muscle (in parentheses under EC100) / enhancing rate of the pulsation of the right atrial muscle (in parentheses under EC50): minus values: pulsation is decreased
Experimental: The drug according to the present invention was evaluated with reference to the physiological activities by means of a method using an atrial muscle extirpated from a guinea pig.
Male guinea pigs having a body weight of 300-500 g were made swooned by striking his head and were bleeded to death. The heart was extirpated and the right and left atrial muscles were cut off. The tops of each atrial muscle were fixed with cerrefines. The muscle was suspended into an organ-bath in which a Krebs-Henseleit solution (at 32° C.) was filled, and a 95% O2 -5% CO2 gas was flown through the bath. The left atrial muscle was stimulated electrically at a frequency of 1 Hz to stabilize the contracting force of the left atrial muscle. Then, the compounds according to the present invention represented by the general formulae were added to the organ-bath. As for the right atrial muscle, after the pulsation was stabilized, the compounds according to the present invention were added in the organ-bath in the same manner as described above.
The compounds according to the present invention represented by the aforementioned general formulae enhanced the left atrial muscle contracting force dependent on their concentrations. The drug concentrations for enhancing the left atrial muscle contracting force to the levels of 20%, 50% and 100%, respectively are listed in Table 2. EC20, EC50 and EC100 indicate the molar concentration for enhancing the left atrial muscle contracting force to the levels of 20%, 50% and 100%, respectively. The enhancing rates of the pulsation of the right atrial muscle are also listed within parentheses. The minus values in parentheses indicate that the pulsation of the right atrial muscle is decreased.
As a control drug, theophylline ([…].

COc1cc(C)c2[nH]ccc(=O)c2c1 [Compound 20, 6-methoxy-8-methyl-4(1H)-quinolone]
EC20 (left atrial muscle): 12.4 µM
EC50 (left atrial muscle): 58.9 µM
EC100 (left atrial muscle): 299 µM
ΔLV-dP/dtmax (%) (heart muscle): 41.7%
enhancing rate of the pulsation of the right atrial muscle (in parentheses under EC20) (right atrial muscle): 0.2%
enhancing rate of the pulsation of the right atrial muscle (in parentheses under EC100) (right atrial muscle): 5.6%
enhancing rate of the pulsation of the right atrial muscle (in parentheses under EC50) (right atrial muscle): 1.8%

COc1cc2c(=O)cc[nH]c2cc1OC(C)C [Compound 51, 7-i-propoxy-6-methoxy-4(1H)-quinolone]
EC20 (left atrial muscle): 20 µM
EC50 (left atrial muscle): 70.8 µM
EC100 (left atrial muscle): 1000 µM
ΔLV-dP/dtmax (%) (heart muscle): 41.2%
enhancing rate of the pulsation of the right atrial muscle (in parentheses under EC20) (right atrial muscle): 6.2%
enhancing rate of the pulsation of the right atrial muscle (in parentheses under EC100) (right atrial muscle): 16.5%
enhancing rate of the pulsation of the right atrial muscle (in parentheses under EC50) (right atrial muscle): 16.8%

CCOc1cc2[nH]ccc(=O)c2cc1OC [Compound 62, 7-ethoxy-6-methoxy-4(1H)-quinolone]
EC20 (left atrial muscle): 4.52 µM
EC50 (left atrial muscle): 30 µM
EC100 (left atrial muscle): 75 µM
ΔLV-dP/dtmax (%) (heart muscle): 60.0%

CCOC(=O)c1cn(CC)c2ccc(CC)cc2c1=O [Compound 85, 1,6-diethyl-3-ethoxycarbonyl-4(1H)-quinolone]
EC20 (left atrial muscle): 1.58 µM
EC50 (left atrial muscle): 9.77 µM
ΔLV-dP/dtmax (%) (heart muscle): 25.0%
enhancing rate of the pulsation of the right atrial muscle (in parentheses under EC20) (right atrial muscle): -1.2%
enhancing rate of the pulsation of the right atrial muscle (in parentheses under EC50) (right atrial muscle): -0.8%

COc1cc2[nH]c(C3CC3)cc(=O)c2cc1OC [Compound 95, 2-cyclopropyl-6,7-dimethoxy-4(1H)-quinolone]
EC20 (left atrial muscle): 1.78 µM
EC50 (left atrial muscle): 18.2 µM
EC100 (left atrial muscle): 94.4 µM
ΔLV-dP/dtmax (%) (heart muscle): 46.9%
enhancing rate of the pulsation of the right atrial muscle (in parentheses under EC20) (right atrial muscle): 2.8%
enhancing rate of the pulsation of the right atrial muscle (in parentheses under EC50) (right atrial muscle): 16.3%

CCOc1cc2[nH]c(C3CC3)cc(=O)c2cc1OC [Compound 98, 2-cyclopropyl-7-ethoxy-6-methoxy-4(1H)-quinolone]
EC20 (left atrial muscle): 5.96 µM
EC50 (left atrial muscle): 36.7 µM
ΔLV-dP/dtmax (%) (heart muscle): 57.1%

COc1cccc2c(=O)c(C(=O)N3CCN(Cc4ccc5c(c4)OCO5)CC3)cn(C)c12 [Compound 107, 8-methoxy-1-methyl-3-{1-[4-(3,4-methylenedioxybenzyl)-piperazinyl]carbonyl}-4(1H)-quinolone]
EC20 (left atrial muscle): 16.2 µM
EC50 (left atrial muscle): 100 µM
enhancing rate of the pulsation of the right atrial muscle (in parentheses under EC20) (right atrial muscle): -6.6%
enhancing rate of the pulsation of the right atrial muscle (in parentheses under EC50) (right atrial muscle): -19.5%

CCn1ccc(=O)c2cc(/C=C/c3cc(OC)ccc3OC)ccc21 [Compound 111, 6-[2-trans-(2,5-dimethoxyphenyl)vinyl]-1-ethyl-4(1H)-quinolone]
EC20 (left atrial muscle): 18.2 µM
EC50 (left atrial muscle): 97.7 µM
enhancing rate of the pulsation of the right atrial muscle (in parentheses under EC20) (right atrial muscle): -9.8%
enhancing rate of the pulsation of the right atrial muscle (in parentheses under EC50) (right atrial muscle): -27.0%

CCOc1cc2c(cc1OC)c(=O)cc(-c1cccnc1)n2CC [Compound 114, 7-ethoxy-1-ethyl-6-methoxy-2-(3-pyridyl)-4(1H)-quinolone]
EC20 (left atrial muscle): 6.46 µM
EC50 (left atrial muscle): 53.1 µM
EC100 (left atrial muscle): 1000 µM
enhancing rate of the pulsation of the right atrial muscle (in parentheses under EC20) (right atrial muscle): -1.8%
enhancing rate of the pulsation of the right atrial muscle (in parentheses under EC100) (right atrial muscle): -1.3%
enhancing rate of the pulsation of the right atrial muscle (in parentheses under EC50) (right atrial muscle): -4.0%

C=CCn1c(-c2cccs2)cc(=O)c2cc(OC)c(OCC)cc21 [Compound 116, 1-allyl-7-ethoxy-6-methoxy-2-(2-thienyl)-4(1H)-quinolone]
EC20 (left atrial muscle): 15.3 µM
EC50 (left atrial muscle): 60.3 µM
enhancing rate of the pulsation of the right atrial muscle (in parentheses under EC20) (right atrial muscle): -10.0%

CCCCOc1cc2c(cc1OC)c(=O)cc(-c1ccco1)n2CC [Compound 118, 7-n-butoxy-1-ethyl-2-(2-furyl)-6-methoxy-4(1H)-quinolone]
EC20 (left atrial muscle): 10 µM
EC50 (left atrial muscle): 49 µM
enhancing rate of the pulsation of the right atrial muscle (in parentheses under EC20) (right atrial muscle): -5.0%
enhancing rate of the pulsation of the right atrial muscle (in parentheses under EC50) (right atrial muscle): -21.2%

Cn1c(=O)c2[nH]cnc2n(C)c1=O [Theophylline, theophylline, reference compound]
EC20 (left atrial muscle): 72.4 µM
EC50 (left atrial muscle): 302 µM
ΔLV-dP/dtmax (%) (heart muscle): 18.8%
enhancing rate of the pulsation of the right atrial muscle (in parentheses under EC20) (right atrial muscle): 7.3%
effect on heart rate (in words) (right atrial muscle; from the results of Table 2): increased significantly
enhancing rate of the pulsation of the right atrial muscle (in parentheses under EC50) (right atrial muscle): 20.0%
